In patent publication US20100179130A1, “USE OF PIPERINE AND DERIVATIVES THEREOF FOR THE THERAPY OF NEUROLOGICAL CONDITIONS” (SYNGIS Bioscience GmbH & Co. KG, priority 2007, published 2010):

Legend:
[1] = cited from earlier work
mouse SCI model = assay: Mouse spinal cord injury (SCI) model, Basso-Mouse-Score; type: in vivo; details: i.p. 10 mg/kg, then 20 mg/kg on two days, plus 1 mg/kg daily s.c. over 2 weeks; day 1-35
Procedure: Female mice at 2 months of age were anesthetized using inhalation anesthesia (1% Halothane/30% N20/70% O2). After laminectomy at the vertebral level Th8/9, the spinal cord was dorsally transected to ˜80% with fine iridectomy scissors leaving a ventral tissue bridge intact as previously described (Demjen et al. Nat Med 2004; 10: 389-395). The animals were treated postoperatively with gentamycin (i.p., 1 mg/kg bodyweight) once a day for 7 days. Bladders were emptied manually until restoration of autonomic bladder function. In the treatment experiment, C57BL/6 wild-type mice (n=20) received i.p. piperine during the operation (10 mg/kg bodyweight) and on the two following days (20 mg/kg bodyweight, each time. Further, the mice received a daily dose of 1 mg/kg bodyweight by continuous s.c. application over 2 weeks via an osmotic minipump (Alzet). Control group (sham, n=20) was treated accordingly but received only vehicle (20% Solutol-HS15). Piperine was solved in 20% Solutol-HS15 as described in Example 7. All animal experiments were approved by the ethical authorities. As a measurement for the outcome the Basso-Mouse-Score (BMS) (Basso et al. J Neurotrauma 2006; 23: 635-659) was determined at day 1, 7, 14, 21, 28, and 35 after operation. The BMS scores a value between 0 (no movement of the hind limbs) to 9 (healthy mouse).

neural stem cells = assay: In vitro differentiation assay on adult neural stem cells (beta-III-tubulin promoter firefly/Renilla dual luciferase reporter); type: cell-based, rat
Source text: The neuroregenerative effect of the compounds according to the present invention can be assayed in vitro by measuring their stimulation of the differentiation of neural stem cells. Therefore, adult neural stem cells have to be isolated and subsequently cultivated in a suitable culture medium. After several passages in vitro the stem cells have to be co-transfected with a DNA construct coding for two discriminable reporter proteins one of them under the control of a constitutive promoter and the other under the control of a beta-III-tubulin promoter. The beta-III-tubulin promoter is induced during the process of neural stem cell differentiation; therefore the reporter protein under the control of this promoter serves as a marker for the stem cell differentiation in such an in vitro dual reporter assay (Schneider et al., J Clin Investigation 2005; 115:2083-2098). The person skilled in the art knows several suitable constitutive promoters such as the SV40-promoter, the TK-promoter, or the CMV-promoter. As discriminable reporter proteins for such a dual reporter assay one can use discriminable luciferases such as firefly luciferase and Renilla luciferase. The transfected cells have to be incubated with the test compound and with a positive and negative controls for normalization and background correction. As a positive control compound one can use retinoic acid (Guan et al., Cell Tissue Res. 2001; 305:171-176; Jacobs et al., Proc. Natl. Acad. Sci. USA 2006; 103:3902-3907), a suitable negative control is the sham treatment of the cells. The neroregenerative activity of the test compound is determined as the ratio of the signal of the beta-III-tubulin promoter controlled reporter versus the signal of the constitutively expressed reporter and is expressed as fold from the control. This assay is suitable to assess the neuroregenerative activity of piperine and derivatives thereof, but also can be used to screen for other potential neuroregenerative compounds. Preferably, such a screening can be used to test compounds which are already known to be suitable as a medicament in terms of its toxicology, bioavailability, solubility, stability etc.
Neural stem cells were isolated from the subventricular zone of 4 week-old male Wistar rats as described (Maurer et al, Proteome Sci. 2003; 1:4). Cells were cultivated in Neurobasal medium (Invitrogen) supplemented with B27 (Invitrogen), 2 mM L-glutamine, 100 units/ml penicillin, 100 units/ml streptomycin, 20 ng/ml […] (EGF), 20 ng/ml fibroblast growth factor-2 (FGF-2), and 2 μg/ml heparin. Once a week the neural stem cells were passaged and experiments were performed after 4 weeks in vitro. For DNA transfection, the cells were dissociated and plated on poly-L-ornithin/laminin-coated 96-well plates at a density of 50.000 cells/well. Cotransfection with the pGL3-p-βIII-tubulin vector (100 ng/well) and the pRL SV40 vector (100 ng/well) was carried out according to the FuGene6 Transfection protocol (Roche). The pRL SV40 vector (Promega) served as an internal control vector.
To amplify the class III β-tubulin gene promoter (fragment −450-+54), rat genomic DNA was used as a template for PCR (Dennis et al., Gene 2002; 294:269-277). The amplified fragment was inserted into the Mlu I/Xho I site of the pGL3-Basic firefly luciferase reporter vector (Promega) to generate the pGL3-p-βIII-tubulin experimental vector.
After overnight incubation, the plate was decanted and given in 8-fold replicates fresh medium containing piperine (Sigma) or vehicle. As a positive control for in vitro differentiation, stem cells were treated by adding 1 μM retinoic acid (Sigma) to the medium missing the mitogens.
After 48 hrs, the cells were harvested to prepare the cellular extracts for luciferase assay following the directions of the manufacturer (Promega). […]

[2] = cited from earlier work; remark: listed apart in the source
[3] = test system: carageenan-induced rat paw edema; details: in vivo; cited from earlier work
SH-SY5Y neuronal cells = assay: In vitro anti-apoptosis assay, staurosporine induced apoptosis, Caspase-Glo 3/7; type: cell-based, human

Structure (SMILES): O=C(/C=C/C=C/c1ccc2c(c1)OCO2)N1CCCCC1 [Piperine, (E,E)-1-[5-(1,3-benzodioxol-5-yl)-1-oxo-2,4-pentadienyl]piperidine]
- maximum concentration in rat brain tissue ([1]; i.v. bolus of 50 mg/kg): about 4 μg/ml
- passage of the blood-brain-barrier ([1]; rat, in vivo): passes the intact blood-brain-barrier
- outcome of experimental SCI (Basso-Mouse-Score) (mouse SCI model): clearly improved the outcome
- differentiation of neural stem cells to neurons, dose dependence (neural stem cells; 0.2 μM up to 25, 50 or 100 μM, compared with sham and 1 μM retinoic acid): significantly stimulates
- fold induction at 1 µM (neural stem cells; Rattus norvegicus, Neural stem cell, 1 μM final compound concentration, in comparison to sham treatment, read-out: Stimulation factor for differentiation of neural stem cells): 2.1
- solubility in water [2]: essentially insoluble in water
- anti-inflammatory activity [3]: significant anti-inflammatory activity
- degree of apoptosis relative to the staurosporine control (SH-SY5Y neuronal cells; compound 1 μM in the presence of staurosporine 0.1 μM, SH-SY5Y): 66%
- reduction of the staurosporine induced apoptosis (SH-SY5Y neuronal cells; piperine 100 μM to 10 μM with staurosporine 0.1 μM, 5 h): significant reduction
- apoptotic effect by themselves (SH-SY5Y neuronal cells; without staurosporine): neither piperine nor derivatives thereof exhibited an apoptotic effect by themselves
